Entries after “also recorded” stand apart in the source; their conditions may differ.
Experiments:
Assay type in all cases: in vivo, mouse
C57Bl/6J mice [1] = test: Plasma C24:1-ceramides after 72 hours on the diets; details: control and HFDs; 72 hours on diets
Source text: (§1) Diets. Diets were obtained from Research Diets (New Brunswick, N.J., United States of America). The low fat chow was D12450Ji (10 kcal % fat) and the high fat chow was D12492 (60 kcal % fat). These two chows were reformulated by replacing a portion of dietary fat with an ethyl ester of nervonic acid from Nu-Chek Prep (Elysian, Minn., United States of America) to produce isocaloric diets with nervonic acid at 6 g per kg of diet (0.6%). For the three most prevalent fatty acids in these diets: C16 comprised 14.4%, 11.7%, 18.5%, and 18.1%; C18:1 comprised 27.4%, 22.8%, 32%, and 31.4%; and C18:2 comprised 39.6%, 36.2%, 26.9%, and 26.5% of the fatty acid composition of the Cnt, Cnt+NA, HFD, and HFD+NA diets, respectively. Mice were started on diets at ˜8 weeks of age and given ad libitum access.
Sphingolipid and acylcarnitine measurements by liquid chromatography-mass spectrometry. Sphingolipids were analyzed as described previously (Wijesinghe et al., 2010) for FIG. 1B or with modifications described herein. Liver samples from rats fed a low or high fat diet were obtained from Scot Kimball's laboratory at the Pennsylvania State University (Hershey, Pa.). Mouse liver samples were analyzed with modifications as described previously (Pearson et al., 2020). […]

C57Bl/6J mice [2] = test: Body composition (EchoMRI)
Procedure: Animals. Animal experiments were approved by the Animal Care and Use Committee of the University of Virginia (Charlottesville, Va., United States of America). C57Bl/6J mice were obtained from Jackson Laboratories (Bar Harbor, Me., United States of America). Mice were group housed in standard cages with up to five mice per cage with a 12 hour dark/light cycle. All mice were weighed once per week. Weekly food consumption was measured, with the amount consumed per cage averaged amongst the mice in the cage. Body composition was determined by use of an ECHOMRI™-100H Body Composition Analyzer (EchoMRI LLC, Houston, Tex., United States of America).
as §1

C57Bl/6J mice [3] = test: Plasma insulin (fasting and after IP glucose); details: for fasting (basal) plasma insulin levels: HFD+NA versus HFD; for fasting (basal) plasma insulin levels / fasting plasma insulin levels: 8 weeks; for increase in insulin after intraperitoneal administration of glucose: HFD+NA, 30 min after IP glucose; for fasting plasma insulin levels: control diet with NA
Procedure: (§2) Insulin Tolerance Test (ITT) and Glucose Tolerance Test (GTT) and analysis of blood glucose and plasma insulin. ITT and GTT were performed as described in Lansey et al., 2012. Briefly, for ITT, random-fed mice were given an intraperitoneal injection (IP) of insulin (0.75 U/kg in 0.9% NaCl). Blood glucose levels were determined by a glucometer (Contour Next EZ Blood Glucose Monitoring System, Bayer, Leverkusen, Germany) at the indicated time points after injection. For GTT, mice were fasted for 16 hours prior to testing. D-Glucose, prepared the day before, was administered via an IP injection (1 g/kg), and blood glucose levels were determined by a glucometer at the indicated time points after injection. Plasma insulin levels were determined using a STELLUX® brand Chemi Rodent Insulin ELISA kit (Cat. No. 80-INSMR-CHO1; APLCO, Salem, N.H., United States of America) or an Ultrasensitive Rat/Mouse Insulin ELISA kit, Low Range Assay (Cat. No. 90060; Crystal Chem, Downers Grove, Ill., United States of America). The luminescence assay was conducted using a VICTOR2 Plate Reader (Perkin Elmer, Waltham, Mass., United States of America).
For assessment of insulin, blood was collected with heparinized capillary tubes and subsequently centrifuged to obtain plasma. Insulin levels was then determined using a STELLUX® Chemi Rodent Insulin ELISA kit (Catalog No. 80-INSMR-CHO1, APLCO, Salem, N.H., United States of America) or an Ultrasensitive Rat/Mouse Insulin ELISA kit low range (Cat. No 90060; Crystal Chem, Downers Grove, Ill., United States of America). The luminescence assay was conducted using a VICTOR2 Plate Reader (Perkin Elmer, Waltham, Mass., United States of America).

C57Bl/6J mice [4] = test: Insulin Tolerance Test (ITT)
Procedure: as §2

C57Bl/6J mice [5] = test: Energy expenditure, respiratory exchange ratio and locomotion in metabolic cages
Procedure: For determination of energy expenditure, respiratory exchange ratios, and activity, mice were placed in an Oxymax metabolic chamber systems (Comprehensive Laboratory Animal Monitoring System, CLAMS, from Columbus Instruments (Columbus, Ohio, United States of America). Oxygen consumption (V02) and carbon dioxide production (VCO2) were determined for each mouse every 18 minutes over 72 hours with ambulatory activity assessed every minute over this same time period. Only the last two complete light and dark cycles (spanning 48 hours) were used for data analysis. Feces was collected from these studies and shipped to the Mouse Metabolic Phenotyping Core at the University of Texas Southwestern for bomb calorimetry analysis using a Parr 6200 Isoperibol Calorimeter (Parr Instrument Company, Moline, Ill., United States of America).

C57Bl/6J mice [6] = test: Liver acylcarnitine levels by LC-MS/MS
Procedure: Acylcarnitines were quantified as their butyl esters as described in Giesbertz et al., 2015. Briefly, liver tissue was extracted in ice-cold methanol spiked with stable-isotopically labeled internal standards (Cambridge Isotope Laboratories, Tewksbury, Mass., United States of America). Insoluble material was pelleted and the supernatant subsequently dried down under vacuum. Samples were solubilized in n-butanol containing 5% acetyl chloride and incubated for 60° C. for 20 minutes, Samples were subsequently dried down again and resuspended in 50:50 water:methanol for LC-ESI-MS/MS analysis. LC-MS/MS analysis was performed on a I-class Acquity with a 2.1 mm×10 cm C18 CSH […] particle size column coupled to an in-line TQ-S mass spectrometer using multiple reaction monitoring. Calibration curves were generated from standard mixtures of acylcarnitines from Cambridge Isotope Laboratories.

[7] = NA enrichment in both the control diet and the HFD

In the case of (Z)-tetracos-15-enoic acid [NA], the “plasma C24:1-ceramides” value (C57Bl/6J mice [1]) is reported as “significant increases”, the “average body fat content” value (C57Bl/6J mice [2]; HFD+NA fed animals at the time of sacrifice (HFD: 16.44 g/mouse)) is reported as 9.48 g/mouse and the fat mass (C57Bl/6J mice [2]; HFD+NA versus HFD) is reported as “reduction in fat mass”. For the same substance, the lean mass (C57Bl/6J mice [2]; HFD+NA versus HFD) was “slightly, but significantly, reduced”, the lean mass (C57Bl/6J mice [2]; HFD+NA versus control or control+NA groups) was “not significantly different” and the water mass (C57Bl/6J mice [2]; all experimental groups) was “similar”. For the same substance, the lean mass (C57Bl/6J mice [2]; control+NA versus control) was “not significantly different”, the “fasting (basal) plasma insulin levels” value (C57Bl/6J mice [3]) was “significantly reduced” and the “fasting (basal) plasma insulin levels” value (C57Bl/6J mice [3]; listed as nervonic acid) was “reduced insulin levels”. For the same substance, the “increase in insulin after intraperitoneal administration of glucose” value (C57Bl/6J mice [3]) was “no such increase”, the “increase in insulin after intraperitoneal administration of glucose” value (C57Bl/6J mice [3]; listed as nervonic acid) was “not observed” and the “fasting plasma insulin levels” value (C57Bl/6J mice [3]) was “did not affect insulin levels”. For the same substance, the “fasting plasma insulin levels” value (C57Bl/6J mice [3]; listed as nervonic acid) was “did not influence insulin levels”, the “response of blood glucose to insulin injection” value (“response of blood glucose” for short) (C57Bl/6J mice [4]; HFD+NA, 11 weeks on diets) was “responded similarly to mice on control diets” and the “response of blood glucose” value (C57Bl/6J mice [4]; HFD+NA, 11 weeks on diets, listed as nervonic acid) was “responded similarly to mice on the control diet”. The “response of blood glucose” value (C57Bl/6J mice [4]; control diet containing NA) was “responded similar to mice on the control diet alone”, the “response of blood glucose” value (C57Bl/6J mice [4]; control diet containing NA, listed as nervonic acid) was “responded similar to the control diet” and the ambulatory activity (C57Bl/6J mice [5]; HFD+NA versus HFD) was “similar”. The “oxygen consumption (VO2)” value (C57Bl/6J mice [5]; HFD+NA versus HFD, light and dark cycle) was “significantly lower”, the “carbon dioxide production (VCO2)” value (C57Bl/6J mice [5]; HFD+NA versus control and HFD groups) was “significant reduction” and the ambulatory activity (C57Bl/6J mice [5]; control+NA versus control) was “similar”. For the same substance, the heat production (C57Bl/6J mice [5]; control+NA versus control) was “No differences”, the “respiratory exchange ratio (RER)” value (C57Bl/6J mice [5]; control+NA versus control, light and dark cycles) was “No statistical changes” and the “dicarboxyl-acylcarnitines C5 (C5-DC) and C6 (C6-DC) levels in liver” value (C57Bl/6J mice [6]; HFD enriched with NA) was “teductions”. The “long-chain acylcarnitines in liver” value (C57Bl/6J mice [6]; HFD+NA versus HFD) was “significant decreases; also recorded: largely restored to control levels”, the “hydroxyl-fatty acylcarnitines in liver” value (C57Bl/6J mice [6]; NA enrichment in both diets, C4-OH, C6-OH, C10-OH, C8-OH) was “increased” and the “acetyl-carnitine (C2) in liver” value (C57Bl/6J mice [6]; [7]) was “increased”. The “free carnitine (C0) in liver” value (C57Bl/6J mice [6]; [7]) was “increased”.
